Source: patent US8912190B2, “Substituted heterocyclic compounds” (Gilead Sciences, Inc., priority 2008, dated 2014)

Legend:
[1] = target: T1, wild-type human cardiac sodium channel, hNav1.5 (Homo sapiens, UniProt Q14524); test: Late INa screening assay (PatchXpress whole cell patch clamp); assay type: cell-based; details: HEK293 hNav1.5; for inhibition at 10 µM: compound at 10 uM, late INa generated with Tefluthrin or ATX II, read-out: Late INa 10 uM (percent block of late INa); for Late INa 1 uM (percent block of late INa): compound at 1 uM
T1 construct: host or cells: HEK293
Description: The late sodium current (Late INa) and peak sodium current (Peak INa) assays were performed on an automated electrophysiology platform, PatchXpress 7000A (MDS Analytical Technologies, Sunnyvale, Calif.), using the whole cell patch clamp technique to measure currents through the cell membrane of up to 16 cells at a time. The assay used an HEK293 (human embryonic kidney) cell line heterologously expressing the wild-type human cardiac sodium channel, hNav1.5, purchased from Millipore (Billerica, Mass.). No beta subunits were coexpressed with the Na channel alpha subunit. Cells were maintained with standard tissue culture procedures, and stable channel expression was maintained with 400 μg/ml Geneticin in the culture medium. Cells isolated for use on PatchXpress were incubated for 5 minutes in Versene 1× and then for 2 minutes in 0.0125% Trypsin-EDTA (both at 37° C.) to ensure that 80-90% of the cells are single and not part of a cell cluster. Experiments were carried out at 24-27° C.
For both the Late INa and Peak INa assays, series resistance compensation was set to 50% and whole-cell compensation was performed automatically. Currents were low-pass filtered at 10 kHz and digitized at 31.25 kHz. Currents through open sodium channels were automatically recorded and stored in the DataXpress2 database (MDS Analytical Technologies, Sunnyvale, Calif.). Analysis was performed using DataXpress2 analysis software and data are compiled in Excel.
Compound stocks were routinely made in glass vials to 10 mM in dimethyl sulfoxide (DMSO). In some cases, when compounds were not soluble in DMSO, they are made in 100% ethanol. Stocks were sonicated as necessary. The extracellular solution for screening Late INa was composed of: 140 mM NaCl, 4 mM KCl, 1.8 mM CaCl2, 0.75 mM MgCl2, and 5 mM HEPES with pH adjusted to 7.4 using NaOH. The extracellular solution for screening Peak INa was composed of: 20 mM NaCl, 120 mM N-methyl-D glucamine, 4 mM KCl, 1.8 mM CaCl2, 0.75 mM MgCl2, and 5 mM HEPES with pH adjusted to 7.4 using HCl. The intracellular solution used to perfuse the inside of the cells for both the Late INa and Peak INa assays contained: 120 mM CsF, 20 mM CsCl, 5 mM EGTA, 5 mM HEPES and pH adjusted to 7.4 with CsOH. Compounds were diluted in extracellular solution to […] in glass vials and then transferred to glass well plates before robotic addition to the cells. The 0Na extracellular solution used at the end of each experiment for the Late INa and Peak INa assays to measure baseline current contained: 140 mM N-methyl-D-glucamine; 4 mM KCl; 1.8 mM CaCl2; 0.75 mM MgCl2; 5 mM HEPES and pH was adjusted to 7.4 with HCl.
For the Late INa assay, sodium channels were activated every 10 seconds (0.1 Hz) by depolarizing the cell membrane to −20 mV for 250 milliseconds (ms) from a holding potential of −120 mV. In response to a −20 mV voltage step, typical Nav1.5 sodium currents activated rapidly to a peak negative current and then inactivated nearly completely within 3-4 ms.
All compounds were tested to determine their activity in blocking the late sodium current. Late INa current was generated by adding 10 μM Tefluthrin (pyrethroid) to the extracellular solution while recording Na currents. For some experiments, 50 nM ATX II (sea anemone toxin), another late INa activator, was used to generate the late component. Both activators generated late components that are large, and thus block of the late component by compounds could be measured easily. For the purposes of the screening, late INa is defined as the mean current between 225 ms and 250 ms after stepping to −20 mV to activate Na channels. After establishing the whole cell recording configuration, late INa activators were added to each well 4 times over a 16-17 minute period so that the late component of the Na current reached a stable value. Compounds were then added (typically at 10 μM), in the presence of late INa activator, with 3 additions over the course of 7 or 8 minutes. […]

[2] = target: T2, hERG potassium channel (Homo sapiens, UniProt Q12809); test: hERG screening assay (PatchXpress patch clamp, CHO cells); assay type: cell-based; details: CHO cells expressing hERG; for HERG 1 uM (block of hERG current): compound at 1 uM; for HERG 10 uM (block of hERG current): compound at 10 uM
T2 construct: expressed in transfected cells; host or cells: CHO (Chinese Hamster Ovary)
Description: Compounds were screened to test their activity in blocking the hERG potassium channel. The hERG channel is heterologously expressed in a CHO (Chinese Hamster Ovary) cell line. Cells were maintained with standard tissue culture procedures and stable channel expression was maintained with 500 μg/ml G418 in the culture medium. Cells were harvested for testing on the PatchXpress automated patch clamp with Accumax (Innovative Cell Technologies, San Diego, Calif.) to isolate single cells.
The following solutions were used for electrophysiological recordings. The external solution contained: 2 mM CaCl2; 2 mM MgCl2; 4 mM KCl; 150 mM NaCl; 10 mM Glucose; 10 mM HEPES (pH 7.4 with 1M NaOH, osmolarity). The internal solution contained: 140 mM KCl, 10 mM MgCl2, 6 mM EGTA, 5 mM HEPES, 5 mM ATP (pH adjusted to 7.25 with KOH).
hERG channels were activated when the voltage was stepped to +20 mV from the −80 mV holding potential. During a 5 second step at +20 mV, the channels activated and then largely inactivated, so the currents were relatively small. Upon returning to −50 mV from +20 mV, hERG currents transiently became much larger as inactivation was rapidly removed and then the channel closed. The first step to −50 mV for 300 ms was used as a baseline for measuring the peak amplitude during the step to −50 mV after channel activation. The peak current at −50 mV was measured both under control conditions and after addition of compound.
All compounds were prepared as 10 mM DMSO stocks in glass vials. Stock solutions were mixed by vigorous vortexing and sonication for about 2 minutes at room temperature. For testing, compounds were diluted in glass vials using an intermediate dilution step in pure DMSO and then further diluted to working concentrations in external solution. Dilutions were prepared no longer than 20 minutes before use.
After achieving the whole-cell configuration, cells were monitored for 90 seconds to assess stability and washed with external solution for 66 seconds. The voltage protocol described above was then applied to the cells every 12 seconds and throughout the whole procedure. Only cells with stable recording parameters and meeting specified health criteria were allowed to enter the compound addition procedure.
External solution containing 0.1% DMSO (vehicle) was applied to the cells first to establish the control peak current amplitude. After allowing the current to stabilize for […], 1 μM and then 10 μM test compounds were applied. Each compound concentration was added 4 times and cells were kept in test solution until the effect of the compound reached steady state or for a maximum of 12 minutes. After addition of test compound, a positive control (1 μM Cisapride) was added, and must block >95% of the current for the experiment to be considered valid. Washout in the external solution compartment was performed until the recovery of the current reached steady state. Data was analyzed using DataXpress, Clampfit (Molecular Devices, Inc., Sunnyvale) and Origin 7 (Originlab Corp.)

T2 sequence (Q12809 whole entry): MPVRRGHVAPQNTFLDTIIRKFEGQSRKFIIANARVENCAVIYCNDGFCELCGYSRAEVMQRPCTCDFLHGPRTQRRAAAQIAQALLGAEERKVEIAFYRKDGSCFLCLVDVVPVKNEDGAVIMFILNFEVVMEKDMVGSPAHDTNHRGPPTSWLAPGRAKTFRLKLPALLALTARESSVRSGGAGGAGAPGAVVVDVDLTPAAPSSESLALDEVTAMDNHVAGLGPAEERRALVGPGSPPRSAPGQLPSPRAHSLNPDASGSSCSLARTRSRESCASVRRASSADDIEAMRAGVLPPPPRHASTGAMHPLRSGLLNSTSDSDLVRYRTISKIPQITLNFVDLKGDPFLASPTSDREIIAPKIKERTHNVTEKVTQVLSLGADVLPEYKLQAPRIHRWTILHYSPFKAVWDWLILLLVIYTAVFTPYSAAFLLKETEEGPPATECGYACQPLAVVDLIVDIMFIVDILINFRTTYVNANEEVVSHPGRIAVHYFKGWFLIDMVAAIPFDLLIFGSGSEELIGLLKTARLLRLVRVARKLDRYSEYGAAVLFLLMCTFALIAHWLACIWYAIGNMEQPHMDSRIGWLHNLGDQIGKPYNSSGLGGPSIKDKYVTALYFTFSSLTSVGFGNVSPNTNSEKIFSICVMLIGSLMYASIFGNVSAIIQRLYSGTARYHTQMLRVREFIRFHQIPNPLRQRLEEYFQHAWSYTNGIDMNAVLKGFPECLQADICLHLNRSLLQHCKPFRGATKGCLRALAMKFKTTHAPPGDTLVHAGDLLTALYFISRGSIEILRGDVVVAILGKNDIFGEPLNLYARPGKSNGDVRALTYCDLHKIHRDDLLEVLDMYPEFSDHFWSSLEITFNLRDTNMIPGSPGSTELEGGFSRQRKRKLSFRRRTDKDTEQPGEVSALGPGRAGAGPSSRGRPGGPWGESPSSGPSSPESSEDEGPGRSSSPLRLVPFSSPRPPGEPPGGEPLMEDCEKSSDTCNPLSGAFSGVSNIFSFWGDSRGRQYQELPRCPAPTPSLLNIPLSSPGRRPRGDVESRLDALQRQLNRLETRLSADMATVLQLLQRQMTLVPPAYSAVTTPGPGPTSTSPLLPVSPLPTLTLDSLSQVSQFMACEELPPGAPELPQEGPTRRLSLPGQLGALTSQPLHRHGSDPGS
T1 sequence (Q14524 whole entry): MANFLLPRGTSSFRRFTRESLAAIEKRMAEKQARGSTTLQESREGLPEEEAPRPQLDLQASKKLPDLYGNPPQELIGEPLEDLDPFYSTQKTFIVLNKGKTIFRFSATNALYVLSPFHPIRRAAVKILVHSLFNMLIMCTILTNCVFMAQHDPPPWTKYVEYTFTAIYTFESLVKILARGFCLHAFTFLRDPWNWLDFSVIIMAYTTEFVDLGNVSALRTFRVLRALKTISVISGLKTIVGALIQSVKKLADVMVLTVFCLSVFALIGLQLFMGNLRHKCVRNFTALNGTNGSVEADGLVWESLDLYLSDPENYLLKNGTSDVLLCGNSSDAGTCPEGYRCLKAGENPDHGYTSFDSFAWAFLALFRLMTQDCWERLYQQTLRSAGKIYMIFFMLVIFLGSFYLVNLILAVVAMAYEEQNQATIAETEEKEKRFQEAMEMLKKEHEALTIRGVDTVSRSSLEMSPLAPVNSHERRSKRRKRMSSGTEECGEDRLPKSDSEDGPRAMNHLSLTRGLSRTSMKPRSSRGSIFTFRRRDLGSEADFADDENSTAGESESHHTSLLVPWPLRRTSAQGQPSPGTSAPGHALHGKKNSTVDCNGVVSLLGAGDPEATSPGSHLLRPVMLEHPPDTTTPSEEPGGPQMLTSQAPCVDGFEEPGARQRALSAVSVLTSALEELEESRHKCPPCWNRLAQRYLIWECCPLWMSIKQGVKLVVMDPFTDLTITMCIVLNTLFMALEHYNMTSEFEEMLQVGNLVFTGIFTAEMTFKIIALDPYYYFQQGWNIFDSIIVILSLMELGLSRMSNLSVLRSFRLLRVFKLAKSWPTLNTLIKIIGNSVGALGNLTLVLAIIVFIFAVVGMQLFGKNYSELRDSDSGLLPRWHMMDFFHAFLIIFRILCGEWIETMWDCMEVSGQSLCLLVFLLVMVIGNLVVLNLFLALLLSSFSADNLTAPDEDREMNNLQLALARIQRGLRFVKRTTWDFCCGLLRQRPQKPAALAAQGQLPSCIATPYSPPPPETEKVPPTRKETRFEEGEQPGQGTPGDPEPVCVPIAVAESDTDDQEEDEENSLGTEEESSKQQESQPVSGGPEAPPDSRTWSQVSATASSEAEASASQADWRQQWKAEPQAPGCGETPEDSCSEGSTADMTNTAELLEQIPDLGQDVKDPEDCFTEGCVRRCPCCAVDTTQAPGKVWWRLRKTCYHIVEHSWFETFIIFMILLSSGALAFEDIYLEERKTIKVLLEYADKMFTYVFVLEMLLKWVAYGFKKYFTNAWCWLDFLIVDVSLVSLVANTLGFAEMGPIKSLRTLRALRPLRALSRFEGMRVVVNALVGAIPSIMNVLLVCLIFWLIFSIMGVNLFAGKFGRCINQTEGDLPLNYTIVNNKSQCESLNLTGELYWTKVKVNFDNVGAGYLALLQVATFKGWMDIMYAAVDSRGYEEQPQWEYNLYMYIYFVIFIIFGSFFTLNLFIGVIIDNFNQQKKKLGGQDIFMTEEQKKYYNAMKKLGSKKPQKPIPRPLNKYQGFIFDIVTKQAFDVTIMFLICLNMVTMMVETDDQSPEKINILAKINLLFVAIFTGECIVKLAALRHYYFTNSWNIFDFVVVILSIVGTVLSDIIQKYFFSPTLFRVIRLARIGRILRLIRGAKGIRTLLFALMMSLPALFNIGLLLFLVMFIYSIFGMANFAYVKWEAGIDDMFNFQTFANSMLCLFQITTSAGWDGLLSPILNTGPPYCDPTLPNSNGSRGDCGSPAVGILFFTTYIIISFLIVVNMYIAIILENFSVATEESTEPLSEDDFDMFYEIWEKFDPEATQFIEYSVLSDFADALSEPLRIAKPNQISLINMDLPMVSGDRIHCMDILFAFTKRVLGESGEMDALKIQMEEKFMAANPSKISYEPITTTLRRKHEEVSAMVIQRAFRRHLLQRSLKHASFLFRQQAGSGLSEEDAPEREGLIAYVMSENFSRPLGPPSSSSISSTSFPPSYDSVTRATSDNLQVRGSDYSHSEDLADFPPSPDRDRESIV

SMILES	inhibition at 10 µM [1] [%]	HERG 1 uM (block of hERG current) [2] [%]	HERG 10 uM (block of hERG current) [2] [%]	Late INa 1 uM (percent block of late INa) [1] [%]
Cc1nc2cc(-c3cccc(OC(F)(F)F)c3)ccc2n(C)c1=O [1,3-dimethyl-6-[3-(trifluoromethoxy)phenyl] quinoxalin-2(1H)-one]	70.9	19.5	71.5	–
Cc1nc2cc(-c3ccc(OC(F)(F)F)cc3)ccc2n(C)c1=O [1,3-dimethyl-6-[4-(trifluoromethoxy)phenyl] quinoxalin-2(1H)-one]	33.7	–	–	–
Cc1nc2ccc(-c3cccc(C(F)(F)F)c3)cc2n(C)c1=O [1,3-dimethyl-7-[3-(trifluoromethyl)phenyl] quinoxalin-2(1H)-one]	45.5	–	–	–
Cc1nc2ccc(-c3ccc(OC(F)(F)F)cc3)cc2n(C)c1=O [1,3-dimethyl-7-[4-(trifluoromethoxy)phenyl] quinoxalin-2(1H)-one]	61.7	–	–	31.0
Cc1nc2ccc(-c3ccc(C(F)(F)F)cc3)cc2n(C)c1=O [1,3-dimethyl-7-[4-(trifluoromethyl)phenyl] quinoxalin-2(1H)-one]	58.3	25.0	69.5	–
CC(C)c1nc2ccc(-c3cccc(OC(F)(F)F)c3)cc2n(C)c1=O [1-methyl-3-(propan-2-yl)-7-[3-(trifluoromethoxy)phenyl] quinoxalin-2(1H)-one]	49.9	–	–	–
CC(C)c1nc2ccc(-c3ccc(OC(F)(F)F)cc3)cc2n(C)c1=O [1-methyl-3-(propan-2-yl)-7-[4-(trifluoromethoxy)phenyl] quinoxalin-2(1H)-one]	60.3	10.0	10.0	31.3
Cn1c(=O)c(C(F)(F)F)nc2cc(-c3cccc(C(F)(F)F)c3)ccc21 [1-methyl-3-(trifluoromethyl)-6-[3-(trifluoromethyl)phenyl] quinoxalin-2(1H)-one]	24	–	–	–
Cn1c(=O)c(C(F)(F)F)nc2cc(-c3cccc(OC(F)(F)F)c3)ccc21 [1-methyl-6-[3-(trifluoromethoxy)phenyl]-3-(trifluoromethyl)quinoxalin-2(1H)-one]	31.6	–	–	–
Cn1c(=O)c(C(F)(F)F)nc2cc(-c3ccc(OC(F)(F)F)cc3)ccc21 [1-methyl-6-[4-(trifluoromethoxy)phenyl]-3-(trifluoromethyl)quinoxalin-2(1H)-one]	39.9	10.0	47.5	–
Cn1c(=O)cnc2ccc(-c3ccc(OC(F)(F)F)cc3)cc21 [1-methyl-7-[4-(trifluoromethoxy)phenyl] quinoxalin-2(1H)-one]	51.6	10.00	41.5	–
Cn1c(=O)c(C(F)(F)F)nc2ccc(-c3ccc(OC(F)(F)F)cc3)cc21 [1-methyl-7-[4-(trifluoromethoxy)phenyl]-3-(trifluoromethyl)quinoxalin-2(1H)-one]	38.7	10.00	39.0	–
O=C(CO)NCCn1c(=O)c(C(F)(F)F)nc2ccc(-c3ccc(OC(F)(F)F)cc3)cc21 [2-hydroxy-N-(2-{2-oxo-7-[4-(trifiuoromethoxy)phenyl]-3-(trifluoromethyl)quinoxalin-1(2H)-yl}ethyl)acetamide]	19	–	–	–
Cn1c(=O)c(C(C)(C)O)nc2ccc(-c3ccc(OC(F)(F)F)cc3)cc21 [3-(2-hydroxypropan-2-yl)-1-methyl-7-[4-(trifluoromethoxy)phenyl] quinoxalin-2(1H)-one]	54	19.5	76.0	–
Cn1c(=O)c(C(C)(C)C)nc2ccc(-c3cccc(OC(F)(F)F)c3)cc21 [3-tert-butyl-1-methyl-7-[3-(trifluoromethoxy)phenyl] quinoxalin-2(1H)-one]	77.5	10.0	10.0	51.3
Cn1c(=O)c(C(C)(C)C)nc2ccc(-c3ccc(OC(F)(F)F)cc3)cc21 [3-tert-butyl-1-methyl-7-[4-(trifluoromethoxy)phenyl] quinoxalin-2(1H)-one]	44.6	–	–	–
Cc1nc2cc(-c3ccc(F)c(F)c3)ccc2n(C)c1=O [6-(3,4-difluorophenyl)-1,3-dimethylquinoxalin-2(1H)-one]	14.3	–	–	–
Cn1c(=O)cnc2ccc(-c3ccc(F)c(F)c3)cc21 [7-(3,4-difluorophenyl)-1-methylquinoxalin-2(1H)-one]	17.5	–	–	–
CC(C)(C)c1nc2ccc(-c3cccc(OC(F)(F)F)c3)cc2n(CCNC(=O)CO)c1=O [N-(2-{3-tert-butyl-2-oxo-7-[3-(trifiuoromethoxy)phenyl]quinoxalin-1(2H)-yl}ethyl)-2-hydroxyacetamide]	58.1	–	–	–
CCOC(=O)c1nc2ccc(-c3cccc(OC(F)(F)F)c3)cc2n(C)c1=O [ethyl 4-methyl-3-oxo-6-[3-(trifluoromethoxy)phenyl]-3,4-dihydroquinoxaline-2-carboxylate]	54.3	–	–	–
